Laboratory results: patent publication US20260109694A1, “HETEROCYCLIC COMPOUNDS AND USES THEREOF” (Kumquat Biosciences Inc., priority 2023, published 2026)

Key:
PTP1B = molecular target: T1, PTP1B (Homo sapiens, UniProt P18031); experiment: Phosphatase activity assay (DiFMUP substrate); type: biochemical; details: value bin printed in column head
T1 sequence (P18031 1-435): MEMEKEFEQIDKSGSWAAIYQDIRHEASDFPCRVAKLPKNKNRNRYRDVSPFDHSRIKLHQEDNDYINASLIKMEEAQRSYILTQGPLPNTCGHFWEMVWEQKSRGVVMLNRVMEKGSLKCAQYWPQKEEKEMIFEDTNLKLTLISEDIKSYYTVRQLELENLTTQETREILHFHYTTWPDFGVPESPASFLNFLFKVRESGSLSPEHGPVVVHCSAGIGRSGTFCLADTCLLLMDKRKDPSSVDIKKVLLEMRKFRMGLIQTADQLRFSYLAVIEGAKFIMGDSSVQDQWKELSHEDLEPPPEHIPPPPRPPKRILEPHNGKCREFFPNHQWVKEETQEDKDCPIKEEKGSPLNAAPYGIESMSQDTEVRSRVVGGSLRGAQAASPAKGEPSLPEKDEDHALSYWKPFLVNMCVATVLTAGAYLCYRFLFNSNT
How it was run: (§1)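 Each enzyme (PTPN2 at 0.025 ng/ul) was premixed ~2 min with a 10-point inhibitor series in 50 mM HEPES pH 7.5, 150 mM NaCl, 0.5 mM EDTA, 1 mM DTT, 0.001% Tween-20 at room temperature. DiFMUP was added at each enzyme's Km (~45 μM for PTPN2). DiFMU fluorescence was followed 15–30 min, and IC50 came from 4-parameter fits of initial rates.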

PTPN2 = molecular target: T2, PTPN2 (Homo sapiens, UniProt P17706); experiment: Phosphatase activity assay (DiFMUP substrate); type: biochemical; details: value bin printed in column head
T2 sequence (P17706 1-415): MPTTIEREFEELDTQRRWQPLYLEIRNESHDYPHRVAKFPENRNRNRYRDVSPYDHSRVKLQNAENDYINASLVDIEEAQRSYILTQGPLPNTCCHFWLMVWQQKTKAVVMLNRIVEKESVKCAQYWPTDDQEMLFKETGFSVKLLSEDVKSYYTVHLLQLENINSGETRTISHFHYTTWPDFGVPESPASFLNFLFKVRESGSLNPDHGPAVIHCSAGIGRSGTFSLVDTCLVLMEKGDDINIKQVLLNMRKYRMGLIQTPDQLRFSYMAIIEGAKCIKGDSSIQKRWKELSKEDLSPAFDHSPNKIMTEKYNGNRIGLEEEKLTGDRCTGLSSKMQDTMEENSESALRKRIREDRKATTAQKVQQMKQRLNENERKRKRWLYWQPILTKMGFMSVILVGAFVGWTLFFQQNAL
How it was run: as §1

| IC50 (PTP1B) [nM] | IC50 (PTPN2) [nM] | SMILES |
| --- | --- | --- |
| ≤ 1000 | > 1000 | CC(C)CC[C@H]1C=C(c2ccc(O)c(N3CC(=O)NS3(=O)=O)c2F)CN1C(=O)O[C@H](C)OC(=O)C1CCCC1 [Compound 159, (R)-1-((cyclopentanecarbonyl)oxy)ethyl (S)-4-(3-(1,1-dioxido-4-oxo-1,2,5-thiadiazolidin-2-yl)-2-fluoro-4-hydroxyphenyl)-2-isopentyl-2,5-dihydro-1H-pyrrole-1-carboxylate] |
| ≤ 1000 | ≤ 1000 | CC(C)C(=O)OCOc1ccc(C2=C[C@@H](CCC3CCC3)NC2)c(F)c1N1CC(=O)NS1(=O)=O [Compound 160, (R)-(4-(5-(2-cyclobutylethyl)-2,5-dihydro-1H-pyrrol-3-yl)-2-(1,1-dioxido-4-oxo-1,2,5-thiadiazolidin-2-yl)-3-fluorophenoxy)methyl isobutyrate] |
| ≤ 1000 | ≤ 1000 | CC(C)C(=O)O[C@H](C)OC(=O)N1CC(c2ccc(O)c(N3CC(=O)NS3(=O)=O)c2F)=C[C@H]1CCC1CC1 [Compound 161, (S)-1-(isobutyryloxy)ethyl (R)-2-(2-cyclopropylethyl)-4-(3-(1,1-dioxido-4-oxo-1,2,5-thiadiazolidin-2-yl)-2-fluoro-4-hydroxyphenyl)-2,5-dihydro-1H-pyrrole-1-carboxylate] |
| ≤ 1000 | ≤ 1000 | CC(C)CC[C@H]1C=C(c2ccc(O)c(N3CC(=O)NS3(=O)=O)c2F)CN1C(=O)OC(OC(=O)[C@@H](N)C(C)C)C(C)C (stereo partly drawn) [Compound 162, 1-((L-valyl)oxy)-2-methylpropyl (2S)-4-(3-(1,1-dioxido-4-oxo-1,2,5-thiadiazolidin-2-yl)-2-fluoro-4-hydroxyphenyl)-2-isopentyl-2,5-dihydro-1H-pyrrole-1-carboxylate] |
| ≤ 1000 | ≤ 1000 | CC(OC(=O)C1CCCC1)OC(=O)N1CC(c2ccc(O)c(N3CC(=O)NS3(=O)=O)c2F)=C[C@H]1CCC1CCC1 (stereo partly drawn) [Compound 163, 1-((cyclopentanecarbonyl)oxy)ethyl (2R)-2-(2-cyclobutylethyl)-4-(3-(1,1-dioxido-4-oxo-1,2,5-thiadiazolidin-2-yl)-2-fluoro-4-hydroxyphenyl)-2,5-dihydro-1H-pyrrole-1-carboxylate] |
| ≤ 1000 | ≤ 1000 | CC(C)CC[C@H]1C=C(c2ccc(O)c(N3CC(=O)NS3(=O)=O)c2F)CN1C(=O)OC(C)OC(=O)C(C)C (stereo partly drawn) [Compound 165, 1-(isobutyryloxy)ethyl (2S)-4-(3-(1,1-dioxido-4-oxo-1,2,5-thiadiazolidin-2-yl)-2-fluoro-4-hydroxyphenyl)-2-isopentyl-2,5-dihydro-1H-pyrrole-1-carboxylate] |
| ≤ 1000 | ≤ 1000 | CC(C)OC(=O)N1CC(c2ccc(O)c(N3CC(=O)NS3(=O)=O)c2F)=C[C@H]1CCC1CCC1 [Compound 166, isopropyl (R)-2-(2-cyclobutylethyl)-4-(3-(1,1-dioxido-4-oxo-1,2,5-thiadiazolidin-2-yl)-2-fluoro-4-hydroxyphenyl)-2,5-dihydro-1H-pyrrole-1-carboxylate] |

| SMILES | IC50 (PTP1B) [nM] | IC50 (PTPN2) [nM] |
| --- | --- | --- |
| CC(=O)OC(C)OC(=O)N1CC(c2ccc(O)c(N3CC(=O)NS3(=O)=O)c2F)=C[C@H]1CCC1CCC1 (stereo partly drawn) [Compound 164, 1-acetoxyethyl (2R)-2-(2-cyclobutylethyl)-4-(3-(1,1-dioxido-4-oxo-1,2,5-thiadiazolidin-2-yl)-2-fluoro-4-hydroxyphenyl)-2,5-dihydro-1H-pyrrole-1-carboxylate] | ≤ 1000 | ≤ 1000 |
